Reference: patent US20180064153A1, “Methods of Protecting Against Brain Injury” (priority 2016, published 2018)
Where two headings read alike, the source gives them in different places.

What was measured:
[1] = tested on: rats exposed to a low-pressure blast wave; conditions: 30 days supplementation
[2] = tested on: rats exposed to a low-pressure blast wave; conditions: 1 h following blast
Description: Neurological assessment using the neurological severity score (NSS) was performed one hour following the blast and daily thereafter. […] The NSS was performed 1-h following the initial blast wave exposure. NSS assesses somatomotor and somatosensory function by evaluating the animals' activities in motor, sensory, reflexes, beam walking, and beam balancing tasks. Specifically, the following were assessed: ability to exit from a circle (3-point scale), gait on a wide surface (3-point scale), gait on a narrow surface (4-point scale), effort to remain on a narrow surface (2-point scale), reflexes (5-point scale), seeking behavior (2-point scale), beam walking (3-point scale), and beam balance (3- point scale). An observer, who was blind to the different treatment groups, tested the animals.

[3] = tested on: brain-derived neurotrophic factor (BDNF); conditions: day 16 post-blast
[4] = tested on: neuropeptide Y (NPY); conditions: day 16 post-blast
[5] = tested on: glial fibrillary acidic protein (GFAP); conditions: day 16 post-blast
[6] = tested on: tau protein; conditions: day 16 post-blast; for Tau protein expression, CTL compared with BA: p<0.001
[7] = tested on: carnosine; conditions: for Brain Carnosine Concentration: mean ± SD
[8] = tested on: histidine; conditions: for Brain Histidine Concentration: mean ± SD
[9] = individuals taking β-alanine as a free amino acid; cited from earlier work

In the case of NCCC(=O)O [BA, beta-alanine], the “prevalence of animals demonstrating the comorbid pattern of mTBI+PTSD” value ([1]; 2/49) is reported as 4%, the “prevalence of PTSD” value ([1]; 5/49) is reported as 10.2% and the “prevalence of animals demonstrating mTBI” value ([1]; 13/49) is reported as 26.5%. The “NSS: reflex responses, motor coordination, motor strength, sensory function, BA vs PL” value [2] was “No significant differences”, the “BDNF expression, BA compared with PL” value ([3]; CA1 subregion, p=0.009) was “significantly higher” and the “BDNF expression, CTL compared with BA” value ([3]; CA1 subregion, p=0.025) was “significantly higher”. The “BDNF expression, CTL compared with BA” value ([3]; CA3 subregion, p=0.005) was “significantly greater”, the “BDNF expression, BA compared with PL” value ([3]; CA3 subregion, p=0.110) was “No difference” and the “BDNF expression, CTL compared with BA” value ([3]; DG subregion, p=0.005) was “significantly greater”. For the same compound, the “BDNF expression, BA compared with PL” value ([3]; DG subregion, p=0.136) was “no differences”, the “NPY expression, CTL compared with BA” value ([4]; CA1 subregion, p=0.011) was “significantly higher” and the “NPY expression, BA compared with PL” value ([4]; CA1 subregion, p=0.196) was “No significant differences”. For the same compound, the “NPY expression, CTL compared with BA” value ([4]; CA3 subregion, p=0.032) was “significantly greater”, the “NPY expression, BA compared with PL” value ([4]; CA3 subregion, p=0.480) was “no differences” and the “NPY expression, CTL compared with BA” value ([4]; DG subregion, p=0.011) was “significantly greater”. The “NPY expression, BA compared with PL” value ([4]; DG subregion, p=0.074) was “trended (p=0.074) towards a higher response”, the “GFAP expression, PL compared with BA” value ([5]; CA1 subregion, p=0.001) was “significantly greater” and the “GFAP expression, CTL compared with BA” value ([5]; CA1 subregion, p=0.126) was “No differences”. For the same compound, the “GFAP expression, PL compared with BA” value ([5]; CA3 subregion, p=0.021) was “significantly greater”, the “GFAP expression, BA compared with CTL” value ([5]; CA3 subregion, p=0.876) was “no differences” and the “GFAP expression, comparison between BA, PL and CTL” value ([5]; DG subregion, ANOVA p=0.387) was “no difference”. The “Tau protein expression, CTL compared with BA” value ([6]; CA1 subregion) was “significantly lower”, the “Tau protein expression, BA compared with PL” value ([6]; CA1 subregion, p=0.700) was “No significant differences” and the “Tau protein expression, CTL compared with BA” value ([6]; CA3 subregion) was “significantly lower”. The “Tau protein expression, BA compared with PL” value ([6]; CA3 subregion, p=1.000) was “no differences”, the “Tau protein expression, CTL compared with BA” value ([6]; DG subregion) was “significantly lower” and the “Tau protein expression, BA compared with PL” value ([6]; DG subregion, p=0.557) was “no differences observed”. The “Brain Carnosine Concentration” value ([7]; Amygdala) was 23.2 ± 18.4 mM, the “Brain Carnosine Concentration” value ([7]; Cortex) was 364 ± 178 mM and the “Brain Carnosine Concentration” value ([7]; Hippocampus) was 22.4 ± 11.3 mM. For the same compound, the “Brain Carnosine Concentration” value ([7]; Hypothalamus) was 22.7 ± 26.2 mM, the “Brain Carnosine Concentration” value ([7]; Thalamus) was 50.9 ± 33.9 mM and the “carnosine content, BA compared to PL” value ([7]; amygdala, p=0.061) was “Trends towards a difference”. For the same compound, the “carnosine content higher than in animals that consumed the vehicle” value ([7]; average across the five brain regions) was 79%, the “carnosine content, BA compared to PL” value ([7]; cerebral cortex, p=0.048) was “significantly higher” and the “carnosine content, BA compared to PL” value ([7]; hippocampus, p=0.058) was “Trends towards a difference”. For the same compound, the “Brain Histidine Concentration” value ([8]; Amygdala) was 2619 ± 1467 mM, the “Brain Histidine Concentration” value ([8]; Cortex) was 5669 ± 4471 mM and the “Brain Histidine Concentration” value ([8]; Hippocampus) was 5632 ± 4995 mM. The “Brain Histidine Concentration” value ([8]; Hypothalamus) was 1862 ± 1794 mM, the “Brain Histidine Concentration” value ([8]; Thalamus) was 26025 ± 21754 mM and the “histidine content higher than PL” value ([8]; across the five regions of the brain) was 86%. The “histidine content, BA compared to PL” value ([8]; cerebral cortex, p=0.070) was “Trends towards a higher histidine content”, the “histidine content, BA compared to PL” value ([8]; hippocampus, p=0.053) was “Trends towards a higher histidine content” and the “histidine content, BA compared to PL” value ([8]; thalamus, p=0.108) was “Trends towards a higher histidine content”. For the same compound, the “duration of flushing/tingling (paraesthesia) of the skin” value [9] was “less than 60 minutes”.
